Experimental data reported in patent US12024506B2, “Compounds” (Oxford University Innovation Limited, priority 2018, dated 2024).

Columns and labels:
[1] = biological target: T1, GST-human KRas166 (G12V) GPPNHP (Homo sapiens, UniProt P01116, G12V); assay: KRas small-molecule screening by SPR (Biacore T200); assay type: binding; details: compound 100 uM, 5% DMSO buffer; immobilised GST-KRas166 (G12V) GPPNHP
T1 construct: made in house; host or cells: E. coli C41(DE3)
Description: For SPR assays pGEX-KRAS(G12V) plasmid was transformed into E. coli C41(DE3). Bacterial cells were cultured at 37° C. to an OD600 of 0.6 and induced with IPTG (final 0.1 mM) at 18° C. over night. The GST fusion proteins were extracted from bacteria pellets after cell disruption in 140 mM NaCl, 2.7 mM KCl, 10 mM NaH2PO4, 1.8 mM KH2PO4, 1 mM EDTA, 2 mM MgCl2 pH 7.4 and purified by glutathione-sepharose column chromatography (GE Healthcare), eluting with 50 mM Tris-HCl pH8.0, 10 mM reduced glutathione, 1 mM DTT, 2 mM MgCl2. The eluted proteins were dialysed against 50 mM Tris-HCl pH8.0, 1 mM DTT, 2 mM MgCl2 and concentrated to 10 mg/ml using a Biomax-30 ULTRAFREE-15 centrifugal filter device (Millipore). Purified KRAS protein was loaded with GPPNHP as described elsewhere (Pacold et al., 2000). Loaded protein was then purified by gel filtration on a HiLoad Superdex-75 HR column (GE Healthcare) in 1×PBS pH7.4, 5 mM MgCl2 and concentrated for storage.
Protocol for KRas Small-Molecule Screening and Affinity Measurements by SPR
To a previously immobilized CM5 chip (GE Healthcare BR-1005-30) with anti GST antibody via amine coupling method, GST in channel 1 and GST-human KRas166 (G12V) GPPNHP in channel 2 were immobilised. GST was immobilised between 2,000 and 5,000 Response units. KRAS166 (G12V) was immobilized between 10,000 to 15,000 Response Units.
In a 96 well plate, compounds were diluted in […], 5 mM MgCl2 and 5% DMSO Buffer to a final concentration of 100 uM. DCAl was used as positive control. Experiment also included a solvent correction curve for 5% DMSO. Screening and evaluation of the protein immobilization and the compounds screening was done accordingly to the BIACORE T200 control and evaluation software.
Calculations for how many response units are required for a 1:1 ratio of compound/protein interaction are shown below. • Protein immobilisation: 10,000 RU; average fragment 300 Da in size. • Rmax=(MWA/MWL)×RL×SM • MWA is the molecular weight of the analyte in Da • MWL is the molecular weight of the ligand in Da • RL is the immobilization level in RU • SM is the molar stoichiometry (assume 1:1) • Rmax=300/47,500×10,000×1 • Rmax=63 RU. Cell Viability Assay protocols Assay 1

[2] = system: H358 cells (ATCC CRL-5807); assay: Cell viability assay 1 (CellTiter-Glo), H358 cells; assay type: cell-based; details: Homo sapiens, NCI-H358, 48 h, first value of the cell, read-out: Cell Viability H358 (concentration that decreases cell viability by 50%)
Description: (§1) Cells (A549 ATCC CCL-185) are cultured in Dulbecco's Modified Eagle's Medium plus 10% foetal calf serum and 2 mM L-glutamine at 37° C., 5% CO2. Cells are plated onto white clear bottom 96-well plates (5000 cells/well in 200 μl media) and left to adhere overnight at 37° C., 5% CO2. Next day, test compound (1 μl at 200× concentration in 100% DMSO) is added to give final test compound concentration 1× in 0.5% DMSO. After 48 h of incubation at 37° C., 5% CO2, 20 μl CellTiter-Glo reagent (Promega G7572) is added into each well. Plates are incubated at room temperature with shaking for 30 min and then luminescence is read using a PheraStar plate reader. The concentration of compounds that decrease cell viability by 50% is calculated from dose response curves generated using Dotmatics data analysis software.
In the H358 cell assay, cells (ATCC CRL-5807) are cultured in RPMI-1640 medium plus 10% foetal calf serum and 2 mM L-glutamine at 37° C., 5% CO2.

[3] = system: DLD1 cells (ATCC CCL-221); assay: Cell viability assay 1 (CellTiter-Glo), DLD1 cells; assay type: cell-based; details: Homo sapiens, DLD-1 cells, 48 h, second value of the cell, read-out: Cell Viability DLD-1 (concentration that decreases cell viability by 50%)
Description: as §1
In the DLD1 cell assay, cells (ATCC CCL-221) are cultured in RPMI-1640 medium plus 10% foetal calf serum and 2 mM L-glutamine at 37° C., 5% CO2.

| SMILES | SPR Response Units [1] [Response Units] | IC50 [2] [µM] | IC50 [3] [µM] |
| --- | --- | --- | --- |
| COc1nc(-c2cccc3c2OCCO3)ccc1Nc1cccc(C(=O)NCC2CCNC(=O)C2)c1 (centres unmarked) [Example 182, 3-[6-(2,3-Dihydro-benzo[1,4]dioxin-5-yl)-2-methoxy-pyridin-3-ylamino]-N-(2-oxo-piperidin-4-ylmethyl)-benzamide] | 198 | 27 | 11.3 |
| COc1nc(-c2cccc3c2OCCO3)ccc1Nc1ccc(CC(=O)NCC2CCN(C)CC2)cc1 [Example 197, 2-{4-[6-(2,3-Dihydro-benzo[1,4]dioxin-5-yl)-2-methoxy-pyridin-3-ylamino]-phenyl}-N-(1-methyl-piperidin-4-ylmethyl)-acetamide] | 453 | > 150 | 15.9 |
| COc1nc(-c2cccc3c2OCCO3)ccc1Nc1cccc(C(=O)NCc2cn[nH]c2)c1 [Example 183, 3-[6-(2,3-Dihydro-benzo[1,4]dioxin-5-yl)-2-methoxy-pyridin-3-ylamino]-N-(1H-pyrazol-4-ylmethyl)-benzamide] | – | 15.5 | 8.4 |
| COc1nc(-c2cccc3c2OCCO3)ccc1Nc1ccccc1C(=O)NCC1CCNCC1 [Example 150, 2-[6-(2,3-Dihydro-benzo[1,4]dioxin-5-yl)-2-methoxy-pyridin-3-ylamino]-N-piperidin-4-ylmethyl-benzamide] | – | 12 | 2.5 |
| COc1cccc(-c2cccc3c2OC(CNCC2CCN(C(=O)c4cnccn4)CC2)CO3)n1 (centres unmarked) [Example 29a, [4-({[8-(6-Methoxy-pyridin-2-yl)-2,3-dihydro-benzo[1,4]dioxin-2-ylmethyl]-amino}-methyl)-piperidin-1-yl]-pyrazin-2-yl-methanone] | 26 | – | – |
| CN1CCC(COc2ccc(-c3cccc4c3OCCO4)nn2)CC1 [Example 85, 3-(2,3-Dihydro-benzo[1,4]dioxin-5-yl)-6-(1-methyl-piperidin-4-ylmethoxy)-pyridazine] | 20 | – | – |
| COc1nc(-c2cccc3c2OCCO3)ccc1Nc1cccc(CNC(=O)c2cn[nH]c2)c1 [Example 81, 1H-Pyrazole-4-carboxylic acid 3-[6-(2,3-dihydro-benzo[1,4]dioxin-5-yl)-2-methoxy-pyridin-3-ylamino]-benzylamide] | 109 | – | – |
| COc1cc(N)cc(-c2cccc3c2O[C@H](CNC(=O)c2ccc(CN4CCN(C)CC4)o2)CO3)n1 [Example 114, 5-(4-Methyl-piperazin-1-ylmethyl)-furan-2-carboxylic acid [(R)-8-(4-amino-6-methoxy-pyridin-2-yl)-2,3-dihydro-benzo[1,4]dioxin-2-ylmethyl]-amide] | 23 | – | – |
| CN(C)Cc1cccc(Nc2ccc(-c3cccc4c3OC(CNC(=O)C3CCOCC3)CO4)nc2)c1 (centres unmarked) [Example 93] | 39 | – | – |
| COc1nc(Nc2cccc3c2OC(CNC(=O)c2ccc(CN4CCN(C)CC4)o2)CO3)ccc1NC(=O)[C@H]1CCCN1 (stereo partly drawn) [Example 131, (R)-Pyrrolidine-2-carboxylic acid{2-methoxy-6-[3-({[5-(4-methyl-piperazin-1-ylmethyl)-furan-2-carbonyl]-amino}-methyl)-2,3-dihydro-benzo[1,4]dioxin-5-ylamino]-pyridin-3-yl}-amide] | 40 | – | – |
| COc1cccc(-c2cccc3c2O[C@H](CNC(=O)C2CCN(Cc4cnccn4)CC2)CO3)n1 [Example 48, 1-Pyrazin-2-ylmethyl-piperidine-4-carboxylic acid [(R)-8-(6-methoxy-pyridin-2-yl)-2,3-dihydro-benzo[1,4]dioxin-2-ylmethyl]-amide] | 54 | – | – |
| COc1cccc(-c2cccc3c2O[C@@H](CNC(=O)c2ccc(CN4CCN(C)CC4)o2)CO3)n1 [Example 44, 5-(4-Methyl-piperazin-1-ylmethyl)-furan-2-carboxylic acid [(S)-8-(6-methoxy-pyridin-2-yl)-2,3-dihydro-benzo[1,4]dioxin-2-ylmethyl]-amide] | 42 | – | – |
| COc1cc(N)cc(-c2cccc3c2OCCO3)n1 [Example 3, 2-(2,3-Dihydro-benzo[1,4]dioxin-5-yl)-6-methoxy-pyridin-4-ylamine] | 16 | – | – |
| COc1nc(-c2cccc3c2OC(CNC(=O)C2CCOCC2)CO3)ccc1NC(=O)CC1CCN(C)CC1 (centres unmarked) [Example 82, Tetrahydro-pyran-4-carboxylic acid (8-{6-methoxy-5-[2-(1-methyl-piperidin-4-yl)-acetylamino]-pyridin-2-yl}-2,3-dihydro-benzo[1,4]dioxin-2-ylmethyl)-amide] | 12 | – | – |
| COc1cc(NC(=O)N[C@@H]2CC[C@H](N)C2)cc(-c2cccc3c2OC(CNC(=O)C2CCOCC2)CO3)n1 (some centres unmarked) [Example 135] | 57 | – | – |
| CN1CCC(NC(=O)c2ccc(Nc3ccc(-c4cccc5c4OC(CNC(=O)C4CCOCC4)CO5)nc3)cc2)CC1 (centres unmarked) [Example 91] | 66 | – | – |
| c1cc2c(c(-c3ccc(Nc4ccc(CNCC5COCCN5)cc4)nn3)c1)OCCO2 (centres unmarked) [Example 154, [6-(2,3-Dihydro-benzo[1,4]dioxin-5-yl)-pyridazin-3-yl]-(4-{[(morpholin-3-ylmethyl)-amino]-methyl}-phenyl)-amine] | 59 | – | – |
| COc1cccc(-c2cccc3c2O[C@H](CNC(=O)c2ccc(CN4CCN(C)CC4)o2)CO3)n1 [Example 51, 5-(4-Methyl-piperazin-1-ylmethyl)-furan-2-carboxylic acid [(R)-8-(6-methoxy-pyridin-2-yl)-2,3-dihydro-benzo[1,4]dioxin-2-ylmethyl]-amide] | 32 | – | – |
| CN(C)Cc1cccc(Nc2ccnc(-c3cccc4c3OC(CNC(=O)C3CCOCC3)CO4)c2)c1 (centres unmarked) [Example 140, tetrahydro-pyran-4-carboxylic acid {8-[4-(3-dimethylaminomethyl-phenylamino)-pyridin-2-yl]-2,3-dihydro-benzo[1,4]dioxin-2-ylmethyl}-amide] | 32 | – | – |
| COc1cc(NC(=O)N(C)C2CCN(C)CC2)cc(-c2cccc3c2OCCO3)n1 [Example 22, 3-[2-(2,3-Dihydro-benzo[1,4]dioxin-5-yl)-6-methoxy-pyridin-4-yl]-1-methyl-1-(1-methyl-piperidin-4-yl)-urea] | 55 | – | – |
| COc1cccc(-c2cccc3c2OC(CNCC2CCOCC2)CO3)n1 (centres unmarked) [Example 29, [8-(6-Methoxy-pyridin-2-yl)-2,3-dihydro-benzo[1,4]dioxin-2-ylmethyl]-(tetrahydro-pyran-4-ylmethyl)-amine] | 14 | – | – |
| COc1cc(NC(=O)[C@@H]2CNCCO2)cc(-c2cccc3c2OCCO3)n1 [Example 20, (S)-Morpholine-2-carboxylic acid [2-(2,3-dihydro-benzo[1,4]dioxin-5-yl)-6-methoxy-pyridin-4-yl]-amide] | 80 | – | – |
| CN(C)CCOc1ccc(C(=O)NCC2COc3cccc(-c4cc(N5CCOCC5)ccn4)c3O2)cc1 (centres unmarked) [Example 102, 4-(2-Dimethylamino-ethoxy)-N-[8-(4-morpholin-4-yl-pyridin-2-yl)-2,3-dihydro-benzo[1,4]dioxin-2-ylmethyl]-benzamide] | 126 | – | – |
